Residues, ends and D or L forms follow the SMILES beside them.
What was measured:
[1] = test system: MDA-MB-231 and HCT116 cell lines; assay: Growth inhibition screen, 3 day exposure, relative DNA content; conditions: 72 h; for inhibition at 1 µM: read-out: Drug Effect (avg) (1 μM); for inhibition at 10 µM: read-out: Drug Effect (avg) (10 μM)
hRRM1 [2] = target: T1, hRRM1 (Homo sapiens, UniProt P23921); assay: Tryptophan fluorescence quenching of hRRM1 at fixed ligand concentration; conditions: ligand 50 μM; hRRM1 0.1 mg/mL; excitation 295 nm
T1 sequence (P23921 1-792): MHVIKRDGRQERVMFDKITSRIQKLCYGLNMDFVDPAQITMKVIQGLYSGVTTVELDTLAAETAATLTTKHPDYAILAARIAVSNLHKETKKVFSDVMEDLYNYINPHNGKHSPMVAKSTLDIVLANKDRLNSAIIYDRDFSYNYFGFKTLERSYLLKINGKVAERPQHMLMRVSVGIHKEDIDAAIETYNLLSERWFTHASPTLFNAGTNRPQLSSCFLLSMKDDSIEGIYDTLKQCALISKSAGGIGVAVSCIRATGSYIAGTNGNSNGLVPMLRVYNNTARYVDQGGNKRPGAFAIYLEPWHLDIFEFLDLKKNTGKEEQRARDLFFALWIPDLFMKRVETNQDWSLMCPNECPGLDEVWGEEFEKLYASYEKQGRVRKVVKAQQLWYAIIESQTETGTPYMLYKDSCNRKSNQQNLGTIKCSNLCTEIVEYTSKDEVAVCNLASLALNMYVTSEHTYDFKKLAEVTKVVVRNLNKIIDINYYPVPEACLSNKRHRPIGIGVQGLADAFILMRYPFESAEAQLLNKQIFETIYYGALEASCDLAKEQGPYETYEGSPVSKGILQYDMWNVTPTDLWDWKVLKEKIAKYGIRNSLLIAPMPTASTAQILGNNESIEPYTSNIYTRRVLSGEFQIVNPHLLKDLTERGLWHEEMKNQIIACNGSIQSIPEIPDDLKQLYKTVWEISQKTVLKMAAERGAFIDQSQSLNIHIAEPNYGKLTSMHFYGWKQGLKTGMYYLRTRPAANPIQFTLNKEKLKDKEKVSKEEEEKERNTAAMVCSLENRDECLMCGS

hRRM1 [3] = target: T1, hRRM1; assay: Gel filtration chromatography of hRRM1 oligomeric state; conditions: 50 μM dATP alone

% Fluorescence quenching (hRRM1 [2]) | hexamer to dimer ratio based on integration of the peaks (hRRM1 [3]) | SMILES | inhibition at 1 µM [1] | inhibition at 10 µM [1]
 |  | OC(COc1ccc(OCC(O)CN2CCN(C3c4ccccc4-c4ccccc43)CC2)cc1)CN1CCN(C2c3ccccc3-c3ccccc32)CC1 (stereo not shown) [Compound 1] | -39.6% | 88%
 |  | CCOC(=O)C(NC(=O)CN[C@H]1CCCc2sccc21)C(=O)OCC [Compound 2] | -19.9% | 53.1%
 |  | CCCCCCCCCCCCCCNC(=O)[C@@H](N)CCN [Compound 3] | 7.2% | 69%
 |  | CCC(C)(C)c1ccc(OCCCCNC(=O)c2cc(Oc3ccc([N+](=O)[O-])cc3)c3ccccc3c2O)c(C(C)(C)CC)c1 [Compound 5] | 3.8% | 39.8%
 |  | CCCOc1ccc(C(=O)OCCN(CC)CC)cc1NS(=O)(=O)/C=C/c1ccccc1 [Compound 6] | -3.3% | 4.3%
 |  | CC(NCCCCCO)c1cc(OCc2ccccc2)cc(OCc2ccccc2)c1 (stereo not shown) [Compound 8] | -7.6% | 3.6%
 |  | CCOC(=O)C[C@@H](CC(=O)NCCN[C@H](C)c1ccc(O)c(C(=O)OC)c1)OC(C)=O [Compound 9] | 9.8% | 9.6%
 |  | CCCCCCCCCCCCCCCC(=O)N[C@@H](CCCCN)C(=O)N[C@@H](CCCCN)C(=O)OC [Compound 10] | -21.9% | -8.9%
No tryptophan fluorescence quenching |  | CC(C)C[C@H](NC(=O)[C@@H]1CCCN1C(=O)[C@H](Cc1cnc[nH]1)NC(=O)[C@@H](NC(=O)[C@H](Cc1ccc(O)cc1)NC(=O)[C@@H](NC(=O)[C@@H](N)CCCNC(=N)N)C(C)C)C(C)C)C(=O)O [Compound 100207] (H-RVYVHPL-OH) |  | 
No tryptophan fluorescence quenching |  | CC(C)=CCC/C(C)=C/CNC(=O)CNC(c1ccc[nH]1)C(F)(F)F (stereo not shown) [Compound 184612] |  | 
 | approximately 3 fold | Nc1ncnc2c1ncn2[C@H]1C[C@H](O)[C@@H](COP(=O)(O)OP(=O)(O)OP(=O)(O)O)O1 [dATP, deoxyadenosine 5′-triphosphate] |  | 

Source: paper PMC4751996 (Journal of medicinal chemistry, 2015)
